Molecular target: T1, ScPma1p (Saccharomyces cerevisiae, UniProt P05030)
T1 construct: gene PMA1; ScPma1p-coated secretory vesicles from S. cerevisiae overexpressing ScPMA1
Test: cell-free vesicle ATPase assay (Pi release)
Format: biochemical

T1 sequence (P05030 whole entry): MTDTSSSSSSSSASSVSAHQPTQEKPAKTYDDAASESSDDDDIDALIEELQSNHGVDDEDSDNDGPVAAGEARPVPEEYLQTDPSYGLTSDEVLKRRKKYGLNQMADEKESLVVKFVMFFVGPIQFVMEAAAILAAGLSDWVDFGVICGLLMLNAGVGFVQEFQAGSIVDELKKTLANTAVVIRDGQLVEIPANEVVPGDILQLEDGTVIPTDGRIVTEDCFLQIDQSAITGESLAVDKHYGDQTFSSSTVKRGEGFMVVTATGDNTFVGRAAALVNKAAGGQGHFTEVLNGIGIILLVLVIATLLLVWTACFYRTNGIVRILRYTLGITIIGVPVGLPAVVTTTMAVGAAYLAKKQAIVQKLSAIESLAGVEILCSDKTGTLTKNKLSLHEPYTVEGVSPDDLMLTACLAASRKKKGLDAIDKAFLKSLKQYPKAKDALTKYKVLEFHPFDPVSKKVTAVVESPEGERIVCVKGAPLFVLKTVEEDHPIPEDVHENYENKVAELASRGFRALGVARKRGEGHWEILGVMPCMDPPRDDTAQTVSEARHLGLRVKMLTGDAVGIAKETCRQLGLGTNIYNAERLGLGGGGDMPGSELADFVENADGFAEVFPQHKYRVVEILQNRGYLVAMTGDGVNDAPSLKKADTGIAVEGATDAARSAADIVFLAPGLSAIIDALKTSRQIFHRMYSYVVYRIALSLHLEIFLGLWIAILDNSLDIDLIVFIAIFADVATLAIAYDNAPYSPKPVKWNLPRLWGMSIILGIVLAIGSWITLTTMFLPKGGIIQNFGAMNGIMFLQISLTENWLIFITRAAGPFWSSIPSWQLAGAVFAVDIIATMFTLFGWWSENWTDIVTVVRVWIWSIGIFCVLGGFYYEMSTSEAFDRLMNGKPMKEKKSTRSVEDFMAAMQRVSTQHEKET

With `C[C@H]1Cc2c([nH]c3cc(Cl)c(F)cc23)[C@@]2(N1)C(=O)Nc1ccc(Cl)cc12` [6′F 7′Cl, KAE609] the IC50 was 81.1 nM.
